Reference: US7259140B2, “Heparin-binding peptides and uses thereof” (Thomas Jefferson University, priority 2003, dated 2007)
Ends that are not written are not given here.

Columns and labels:
[1] = test system: Lovenox ® Activity in Blood from Patients Treated with Lovenox ®; assay: Neutralizing Lovenox activity in blood from patients treated with Lovenox (anti-Factor Xa assay); format: biochemical, human; conditions: Peptide 12 μg/ml
Description: Blood was obtained from volunteers who were being treated with Lovenox® for their medical conditions after obtaining signatures on informed consent forms as approved by the Institutional Review Board. The assays to test neutralization of Lovendx® were performed as described for Table 2. A dose response from 1-60 μg/ml was evaluated as in Table 2.
The dose response pattern for the effective peptides was similar to the dose response in control plasma to which Lovenox® had been added. Each data point represents the mean and standard deviation of triplicate analyses on the same sample of blood from each patient.

[2] = Hemodynamic effects in rats without prior Lovenox; conditions: 2 mg per rat, no Lovenox
[3] = test system: anti-Factor Xa Activity of the Low Molecular Weight Heparin Lovenox ®; assay: Anti-Factor Xa assay (Stachrom Heparin kit): neutralization of Lovenox in citrate or plasma in vitro; format: biochemical, human; conditions: for Lovenox ® Neutralized: Lovenox 0.7 U/ml; for anti-LMWH effect in citrate compared with plasma: Table 2A
Description: The ability of peptides such as (ARKKAAKA)3VLVLVLVL (SEQ ID NO:5) to neutralize the anti-Factor Xa activity of UFH and LMWH in vitro was tested using the Stachrom Heparin kit (Diagnostica Stago), a standard hematology laboratory assay used to measure the anti-Factor Xa activity of heparin. The assay was performed using the low molecular weight heparin enoxaparin sodium (Lovenox®, Aventis Pharmaceuticals, Inc.), unfractionated heparin (UFH), or the non-heparin glycosaminoglycan danaparoid sodium (Orgaran®, Organon Inc., West Orange, N.J.) in 0.32% citrate or in plasma anticoagulated with 0.32% citrate. Enoxaparin is commonly used clinically as a low molecular weight heparin (LMWH). Danaparoid is commonly used clinically as a non-heparin glycosaminoglycan anticoagulant. Currently, the only FDA approved drug to target UFH is protamine, which is not effective in vivo against LMWH or a non-heparin glycosaminoglycan such as danaparoid. Buffer and ATIII are added to form the heparin/ATIII complex, peptide is added, then Factor Xa, reporter dye substrate for Factor Xa activity, and stop solution, and the dye concentration is read at 405 nm. The absorbance of the dye increases with increasing Factor Xa activity, and thus is inversely proportional to the heparin (anti-Factor Xa activity) concentration. Peptides were tested in plasma obtained from three volunteers (A, B, and C). Platelet function inhibitors PG12 and theophylline were added to the blood immediately upon collection.
Results. […] (ARKKAAKA)3VLVLVLVL (SEQ ID NO:5) and VLVL(ARKKAAKA)3ARKKCAKA (SEQ ID NO:38) were able to neutralize about 0.4 U/ml anti-Factor Xa activity of LMWH at a concentration of 12 μg/ml, which would be an effective dose for patients. (AKKARA)6 (SEQ ID […]), (ARKKAAKA)4 (SEQ ID NO:31) and (ARKKAAKA)3ARKKCAKA […] 0.3-0.35 U/ml. In contrast, 12 μg protamine only neutralized about 0.25 U/ml of LMWH under these conditions.

[4] = blood of Lovenox-treated Patient Number 1
[5] = blood of Lovenox-treated Patient Number 2
[6] = blood of Lovenox-treated Patient Number 3
[7] = blood of Lovenox-treated Patient Number 4
[8] = blood of Lovenox-treated Patient Number 5
[9] = blood of Lovenox-treated Patient Number 8
[10] = blood of Lovenox-treated Patient Number 9
[11] = blood of Lovenox-treated Patient Number 10
[12] = blood of Lovenox-treated Patient Number 11

Substance	Lovenox ® Neutralized [1, 4] [U/ml]	Lovenox ® Neutralized [1, 5] [U/ml]	Lovenox ® Neutralized [1, 6] [U/ml]	Lovenox ® Neutralized [1, 7] [U/ml]	Lovenox ® Neutralized [1, 8] [U/ml]	Lovenox ® Neutralized [1, 9] [U/ml]	Lovenox ® Neutralized [1, 10] [U/ml]	Lovenox ® Neutralized [1, 11] [U/ml]	Lovenox ® Neutralized [1, 12]	Lovenox ® Neutralized ([3]; 1 μg/ml Peptide, A Plasma)	Lovenox ® Neutralized ([3]; 1 μg/ml Peptide, B Plasma) [U/ml]	Lovenox ® Neutralized ([3]; 1 μg/ml Peptide, C Plasma)	Lovenox ® Neutralized ([3]; 1 μg/ml Peptide, Citrate)	Lovenox ® Neutralized ([3]; 6 μg/ml Peptide, A Plasma)	Lovenox ® Neutralized ([3]; 6 μg/ml Peptide, B Plasma) [U/ml]	Lovenox ® Neutralized ([3]; 6 μg/ml Peptide, C Plasma) [U/ml]	Lovenox ® Neutralized ([3]; 6 μg/ml Peptide, Citrate)	Lovenox ® Neutralized ([3]; 12 μg/ml Peptide, A Plasma)	Lovenox ® Neutralized ([3]; 12 μg/ml Peptide, B Plasma) [U/ml]	Lovenox ® Neutralized ([3]; 12 μg/ml Peptide, C Plasma) [U/ml]	further results
ARKKAAKAAAAAAAAAAAAAAAAAARKKAAKA [ARKKAAKA(A16)ARKKAAKA, reference compound]	0	0.011	0.055	0.035	0.005	0	0.009	0.062	0.007 + U/ml	0.010 ± 0.008 U/ml	0.027 ± 0.014	0.0 U/ml	0.020 ± 0.023 U/ml	0.018 ± 0.018 U/ml	0.042 ± 0.041	0.0	0.013 ± 0.007 U/ml	0.025 ± 0.011 U/ml	0.042 ± 0.023	0.008 ± 0.012	effect on blood pressure [2]: did not affect blood pressure; Lovenox ® Neutralized ([3]; 12 μg/ml Peptide, Citrate): 0.010 ± 0.007 U/ml; Lovenox ® Neutralized ([3]; 60 μg/ml Peptide, A Plasma): 0.018 ± 0.020 U/ml; Lovenox ® Neutralized ([3]; 60 μg/ml Peptide, B Plasma): 0.061 ± 0.067 U/ml; Lovenox ® Neutralized ([3]; 60 μg/ml Peptide, C Plasma): 0.015 ± 0.012 U/ml; Lovenox ® Neutralized ([3]; 60 μg/ml Peptide, Citrate): 0.017 ± 0.014 U/ml; Lovenox ® Neutralized ([3]; 120 μg/ml Peptide, A Plasma): 0.043 ± 0.020 U/ml; Lovenox ® Neutralized ([3]; 120 μg/ml Peptide, B Plasma): 0.092 ± 0.042 U/ml; Lovenox ® Neutralized ([3]; 120 μg/ml Peptide, C Plasma): 0.003 ± 0.002 U/ml; Lovenox ® Neutralized ([3]; 120 μg/ml Peptide, Citrate): 0.069 ± 0.035 U/ml; effect in the anti-Factor Xa assay for Lovenox ([3]; in both citrate and plasma): minimal effects
ARKKAAKAARKKAAKAARKKAAKAVLVLVL [(ARKKAAKA)3VLVLVL]	0.016	0.030	0.043	0.122	0.109	0.104	0.187	0.133	0.142 U/ml	0.070 ± .036 U/ml	0.030 ± 0.020	0.005 + 0.007 U/ml	0.064 ± .046 U/ml	0.250 ± .012 U/ml	0.234 ± 0.032	0.153 ± 0.031	0.298 ± .049 U/ml	0.241 ± .076 U/ml	0.247 ± 0.031	0.276 ± 0.033	Lovenox ® Neutralized ([3]; 12 μg/ml Peptide, Citrate): 0.457 ± .016 U/ml; Lovenox ® Neutralized ([3]; 60 μg/ml Peptide, A Plasma): 0.453 ± .029 U/ml; Lovenox ® Neutralized ([3]; 60 μg/ml Peptide, B Plasma): 0.474 ± 0.011 U/ml; Lovenox ® Neutralized ([3]; 60 μg/ml Peptide, C Plasma): 0.491 ± 0.029 U/ml; Lovenox ® Neutralized ([3]; 60 μg/ml Peptide, Citrate): 0.479 ± .006 U/ml; Lovenox ® Neutralized ([3]; 120 μg/ml Peptide, A Plasma): 0.457 ± .010 U/ml; Lovenox ® Neutralized ([3]; 120 μg/ml Peptide, B Plasma): 0.496 ± 0.028 U/ml; Lovenox ® Neutralized ([3]; 120 μg/ml Peptide, C Plasma): 0.471 ± 0.013 U/ml; Lovenox ® Neutralized ([3]; 120 μg/ml Peptide, Citrate): 0.516 ± .065 U/ml; anti-LMWH effect in citrate compared with plasma [3]: greater anti-LMWH effect in citrate than in plasma
VLVL(ARKKAAKA)3ARKKCAKA (VLVLARKKAAKAARKKAAKAARKKAAKAARKKCAKA; Fragment)	0.043	0.335	0.008	0.172	0.110	0.329	0.200	0.184	0.240 U/ml	0.080 ± .036 U/ml	0.071 ± 0.056	0.077 ± 0.055 U/ml	0.091 ± .053 U/ml	0.218 ± .026 U/ml	0.233 ± 0.025	0.217 ± 0.154	0.432 ± .086 U/ml	0.365 ± .076 U/ml	0.290 ± 0.047	0.380 ± 0.045	rank as neutralizing agent of Lovenox [3]: most effective neutralizing agents; Lovenox ® Neutralized ([3]; 12 μg/ml Peptide, Citrate): 0.484 ± .012 U/ml; anti-Factor Xa activity of LMWH neutralized ([3]; 12 μg/ml, plasma): about 0.4 U/ml; Lovenox ® Neutralized ([3]; 60 μg/ml Peptide, A Plasma): 0.483 ± .070 U/ml; Lovenox ® Neutralized ([3]; 60 μg/ml Peptide, B Plasma): 0.456 ± 0.029 U/ml; Lovenox ® Neutralized ([3]; 60 μg/ml Peptide, C Plasma): 0.461 ± 0.05 U/ml; Lovenox ® Neutralized ([3]; 60 μg/ml Peptide, Citrate): 0.550 ± .027 U/ml; Lovenox ® Neutralized ([3]; 120 μg/ml Peptide, A Plasma): 0.674 ± .105 U/ml; Lovenox ® Neutralized ([3]; 120 μg/ml Peptide, B Plasma): 0.515 ± 0.005 U/ml; Lovenox ® Neutralized ([3]; 120 μg/ml Peptide, C Plasma): 0.483 ± 0.044 U/ml; Lovenox ® Neutralized ([3]; 120 μg/ml Peptide, Citrate): 0.533 ± .017 U/ml; anti-LMWH effect in citrate compared with plasma [3]: greater anti-LMWH effect in citrate than in plasma; Lovenox/LMWH neutralization compared with protamine ([3]; low concentrations, in the presence of plasma): more effective than protamine
